From ChEMBL document CHEMBL2073941, “TP-search Transporter Database” (Gastroenterology, 1994)

Target: T1, OAT1 (Solute carrier family 22 member 6) (Homo sapiens, UniProt Q4U2R8)
T1 sequence (Q4U2R8 whole entry): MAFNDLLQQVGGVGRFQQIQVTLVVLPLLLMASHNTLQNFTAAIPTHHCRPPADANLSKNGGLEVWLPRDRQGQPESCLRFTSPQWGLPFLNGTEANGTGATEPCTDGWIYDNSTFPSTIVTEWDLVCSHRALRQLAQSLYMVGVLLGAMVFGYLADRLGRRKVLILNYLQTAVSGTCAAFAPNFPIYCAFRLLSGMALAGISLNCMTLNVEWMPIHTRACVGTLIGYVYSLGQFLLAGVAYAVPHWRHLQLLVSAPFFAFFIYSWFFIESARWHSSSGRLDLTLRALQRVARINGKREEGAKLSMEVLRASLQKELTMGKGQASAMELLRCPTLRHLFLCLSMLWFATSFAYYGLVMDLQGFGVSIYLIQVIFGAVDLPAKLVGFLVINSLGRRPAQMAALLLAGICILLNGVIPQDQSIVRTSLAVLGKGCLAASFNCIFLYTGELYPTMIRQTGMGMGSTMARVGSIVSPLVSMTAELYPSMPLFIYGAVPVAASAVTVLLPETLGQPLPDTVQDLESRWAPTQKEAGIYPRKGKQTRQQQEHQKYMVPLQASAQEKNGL
Assay: TP_TRANSPORTER: inhibition of Urate uptake (Urate: 300 uM, DIDS: 2000 uM) in OAT1-expressing S2 cells
Type: functional, cell-based
Set-up: scale not given: the % may be the effect or the level left
Settings: S2 cells that express OAT1, probe urate (300 uM); read-out: Activity

## O=S(=O)(O)c1cc(N=C=S)ccc1/C=C/c1ccc(NC=S)cc1S(=O)(=O)O
  activity at 2000 µM: 64.2%
